{"source": "patent US20100298141A1", "about": "“SUBSTITUTED PYRIDINE N-OXIDE HERBICIDES” (E. I. DU PONT DE NEMOURS AND COMPANY, priority 2007, published 2010)", "key": {"[1]": {"system": "wheat", "experiment": "Test C pre-/postemergence test", "type": "in vivo, Triticum aestivum", "settings": "Preemergence", "summary_of_the_method": "(§1)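 Seeds were planted and treated preemergence with test chemical in a non-phytotoxic solvent mixture containing surfactant. Postemergence applications of the same formulation went onto plants 2 to 18 cm tall (1- to 4-leaf stage). A dash marks no test result.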"}, "[2]": {"system": "morningglory", "experiment": "Test C pre-/postemergence test", "type": "in vivo, Ipomoea coccinea", "settings": "Preemergence", "summary_of_the_method": "as §1"}, "[3]": {"system": "johnsongrass", "experiment": "Test C pre-/postemergence test", "type": "in vivo, Sorghum halepense", "settings": "Preemergence", "summary_of_the_method": "as §1"}, "[4]": {"system": "giant foxtail", "experiment": "Test C pre-/postemergence test", "type": "in vivo, Setaria faberii", "settings": "Preemergence", "summary_of_the_method": "as §1"}, "[5]": {"system": "corn", "experiment": "Test A pre-/postemergence greenhouse test", "type": "in vivo, Zea mays", "settings": "for Corn plant response rating: 0 to 100 scale", "summary_of_the_method": "(§2)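 Visual injury ratings, made relative to untreated controls roughly ten days after treatment, cover both preemergence and postemergence application. Compounds in a surfactant-containing non-phytotoxic solvent were sprayed onto the soil surface after sowing and, simultaneously, onto young plants at the one- to two-leaf stage.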"}, "[6]": {"system": "yellow nutsedge", "experiment": "Test C pre-/postemergence test", "type": "in vivo, Cyperus esculentus", "settings": "Preemergence", "summary_of_the_method": "as §1"}, "[7]": {"system": "Italian ryegrass", "experiment": "Test C pre-/postemergence test", "type": "in vivo, Lolium multiflorum", "settings": "Preemergence", "summary_of_the_method": "as §1"}, "[8]": {"system": "cocklebur", "experiment": "Test C pre-/postemergence test", "type": "in vivo, Xanthium strumarium", "summary_of_the_method": "as §1"}, "[9]": {"system": "eastern black nightshade", "experiment": "Test C pre-/postemergence test", "type": "in vivo, Solanum ptycanthum", "settings": "Preemergence", "summary_of_the_method": "as §1"}, "[10]": {"system": "kochia", "experiment": "Test C pre-/postemergence test", "type": "in vivo, Kochia scoparia", "settings": "Preemergence", "summary_of_the_method": "as §1"}, "[11]": {"system": "wild oat", "experiment": "Test C pre-/postemergence test", "type": "in vivo, Avena fatua", "settings": "Preemergence", "summary_of_the_method": "as §1"}, "[12]": {"system": "redroot pigweed", "experiment": "Test A pre-/postemergence greenhouse test", "type": "in vivo, Amaranthus retroflexus", "settings": "for Pigweed plant response rating: 0 to 100 scale", "summary_of_the_method": "as §2"}, "[13]": {"system": "morningglory", "experiment": "Test A pre-/postemergence greenhouse test", "type": "in vivo, Ipomoea spp.", "settings": "for Morningglory plant response rating: 0 to 100 scale", "summary_of_the_method": "as §2"}, "[14]": {"system": "bermudagrass", "experiment": "Test C pre-/postemergence test", "type": "in vivo, Cynodon dactylon", "summary_of_the_method": "as §1"}, "[15]": {"system": "common (oilseed) sunflower", "experiment": "Test C pre-/postemergence test", "type": "in vivo, Helianthus annuus", "settings": "Preemergence", "summary_of_the_method": "as §1"}, "[16]": {"system": "corn", "experiment": "Test C pre-/postemergence test", "type": "in vivo, Zea mays", "summary_of_the_method": "as §1"}, "[17]": {"system": "rice", "experiment": "Test C flooded paddy test", "type": "in vivo, Oryza sativa", "settings": "Flood", "summary_of_the_method": "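Visual injury ratings against untreated controls, taken 13 to 15 days after compound was added to paddy water standing 3 cm above the soil.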"}, "[18]": {"settings": "31 g ai/ha, scale 0 to 100 (0 no effect, 100 complete control)"}, "[19]": {"settings": "Postemergence, 125 g ai/ha, 0 is no effect, 100 is complete control"}, "[20]": {"settings": "Postemergence, 500 g ai/ha, 0 is no effect, 100 is complete control"}, "[21]": {"settings": "Preemergence, 125 g ai/ha, 0 no effect, 100 complete control"}, "[22]": {"settings": "Preemergence, 500 g ai/ha, 0 to 100 scale where 0 is no effect and 100 is complete control"}, "[23]": {"settings": "62 g ai/ha, Preemergence, scale 0 to 100"}, "[24]": {"settings": "Preemergence, 31 g ai/ha, scale 0 to 100 (0 no effect, 100 complete control)"}, "[25]": {"settings": "preemergence, 125 g ai/ha, scale 0 (no effect) to 100 (complete control)"}}}
{"smiles": "Cc1cc[n+]([O-])c(S(=O)(=O)C(Cl)c2c(C(F)(F)F)nn(C)c2Cl)c1", "note": "(racemic) [Compound 22]", "values": [{"measurement": "Wheat plant response rating", "setting": "[1]; 62 g ai/ha, scale 0 to 100", "value": 0}, {"measurement": "Plant response rating, Wheat", "setting": "[1]; [18]", "value": 0}, {"measurement": "Morningglory plant response rating", "setting": "[2]; 62 g ai/ha, scale 0 to 100", "value": 0}, {"measurement": "Plant response rating, Morningglory", "setting": "[2]; [18]", "value": 0}, {"measurement": "Johnsongrass plant response rating", "setting": "[3]; 62 g ai/ha, scale 0 to 100", "value": 10}, {"measurement": "Plant response rating (0 to 100), Johnsongrass", "setting": "[3]; 250 g ai/ha", "value": 70}, {"measurement": "Foxtail, Giant plant response rating", "setting": "[4]; 62 g ai/ha, scale 0 to 100", "value": 80}, {"measurement": "Plant response rating, Foxtail, Giant", "setting": "[4]; [18]", "value": 80}, {"measurement": "Plant response rating (0 to 100), Foxtail, Giant", "setting": "[4]; 250 g ai/ha", "value": 100}, {"measurement": "Corn plant response rating", "setting": "[5]; [19]", "value": 0}, {"measurement": "Corn plant response rating", "setting": "[5]; [20]", "value": 30}, {"measurement": "Corn plant response rating", "setting": "[5]; [21]", "value": 0}, {"measurement": "Plant response rating, Corn", "setting": "[5]; [22]", "value": 20}, {"measurement": "Nutsedge, Yellow plant response rating", "setting": "[6]; 62 g ai/ha, scale 0 to 100", "value": 60}, {"measurement": "Plant response rating, Nutsedge, Yellow", "setting": "[6]; [18]", "value": 50}, {"measurement": "Ryegrass, Italian plant response rating", "setting": "[7]; 62 g ai/ha, scale 0 to 100", "value": 40}, {"measurement": "Plant response rating, Ryegrass, Italian", "setting": "[7]; [18]", "value": 0}, {"measurement": "Cocklebur plant response rating", "setting": "[8]; [23]", "value": 0}, {"measurement": "Plant response rating, Cocklebur", "setting": "[8]; [24]", "value": 0}, {"measurement": "Plant response rating (0 to 100), Cocklebur", "setting": "[8]; Preemergence, 250 g ai/ha", "value": 0}, {"measurement": "Cocklebur plant response rating", "setting": "[8]; [25]", "value": 0}, {"measurement": "Nightshade plant response rating", "setting": "[9]; 62 g ai/ha, scale 0 to 100", "value": 85}, {"measurement": "Plant response rating, Nightshade", "setting": "[9]; [18]", "value": 0}, {"measurement": "Kochia plant response rating", "setting": "[10]; 62 g ai/ha, scale 0 to 100", "value": 0}, {"measurement": "Plant response rating, Kochia", "setting": "[10]; [18]", "value": 0}, {"measurement": "Oat, Wild plant response rating", "setting": "[11]; 62 g ai/ha, scale 0 to 100", "value": 45}, {"measurement": "Plant response rating, Oat, Wild", "setting": "[11]; [18]", "value": 0}, {"measurement": "Pigweed plant response rating", "setting": "[12]; [19]", "value": 10}, {"measurement": "Pigweed plant response rating", "setting": "[12]; [20]", "value": 50}, {"measurement": "Pigweed plant response rating", "setting": "[12]; [21]", "value": 100}, {"measurement": "Plant response rating, Pigweed", "setting": "[12]; [22]", "value": 100}, {"measurement": "Morningglory plant response rating", "setting": "[13]; [19]", "value": 20}, {"measurement": "Morningglory plant response rating", "setting": "[13]; [20]", "value": 40}, {"measurement": "Morningglory plant response rating", "setting": "[13]; [21]", "value": 70}, {"measurement": "Plant response rating, Morningglory", "setting": "[13]; [22]", "value": 90}, {"measurement": "Bermudagrass plant response rating", "setting": "[14]; 62 g ai/ha, Preemergence, scale 0 to 100 (0 no effect, 100 complete control)", "value": 100}, {"measurement": "Plant response rating, Bermudagrass", "setting": "[14]; [24]", "value": 70}, {"measurement": "Plant response rating (0 to 100), Bermudagrass", "setting": "[14]; Preemergence, 250 g ai/ha", "value": 100}, {"measurement": "Bermudagrass plant response rating", "setting": "[14]; [25]", "value": 100}, {"measurement": "Sunflower plant response rating", "setting": "[15]; 62 g ai/ha, scale 0 to 100", "value": 0}, {"measurement": "Plant response rating, Sunflower", "setting": "[15]; [18]", "value": 0}, {"measurement": "Corn plant response rating", "setting": "[16]; [23]", "value": 20}, {"measurement": "Plant response rating, Corn", "setting": "[16]; [24]", "value": 0}, {"measurement": "Plant response rating (0 to 100), Corn", "setting": "[16]; Preemergence, 250 g ai/ha", "value": 100}, {"measurement": "Corn plant response rating", "setting": "[16]; [25]", "value": 30}, {"measurement": "Plant response rating, Rice", "setting": "[17]; [18]", "value": 0}, {"measurement": "Plant response rating, Rice", "setting": "[17]; 62 g ai/ha, scale 0 to 100, 0 no effect, 100 complete control, 13 to 15 days", "value": 30}, {"measurement": "Plant response rating, Rice", "setting": "[17]; 125 g ai/ha, scale 0 to 100, 0 no effect, 100 complete control, 13 to 15 days", "value": 80}, {"measurement": "Plant response rating, Rice", "setting": "[17]; 250 g ai/ha, scale 0 to 100 (0 no effect, 100 complete control)", "value": 80}]}
